Assay type in all cases: biochemical
Test [1] deals with T1, GalNAc-T2 (triple mutant, R438A-D444A-F447A) (Homo sapiens, UniProt Q10471, D444A/F447A/R438A).
T1 construct: the previous reported template pPICZαAgalnact2 (K75-Q571); made in house; host or cells: Pichia pastoris SMD1168 (pPICZαA)
Description: Transferase assay / Michaelis-Menten kinetics of GalNAc-T2 triple mutant. As to conditions: for Vmax / Km: Triple Mutant (0.02 µM), pH 6.5 cacodylate, 37 °C, 0.25 mM UDP-[3H]-GalNAc, Michaelis-Menten fit, ± standard deviation; for Vmax: 10 mM MnCl2; for Catalytic efficiency (Vmax/Km): Triple Mutant, errors estimated from the largest percent error of Vmax or Km. The method, then: (§1) Specific activity determinations: GalNAc-T glycosylation reactions against (glyco)peptides 1–3 were performed with 75 mM sodium cacodylate, pH 6.5, 1 mM 2-mercaptoethanol, 10 mM MnCl2, 0.25 mM [^3H]-radiolabeled UDP-GalNAc (~6 × 10^8 DPM/µmole, American Radiolabeled Chemicals Inc.), and 1.4 mM (~1.25 mg/ml) of (glyco)peptide (from 4 mM stock in 1 mM TRIS, pH ~7) and varying concentrations (0.01 to 0.5 µM) of transferase (determined by OD280), giving a final reaction volumes of 20 µl in 100 µl capped Eppendorf tubes. Reactions were incubated at 37 °C in a thermostated microplate shaker (Taitec Microincubator M-36) and quenched at the appropriate reaction time by the addition of 20 µl of 250 mM EDTA and placed on ice prior to final workup. Typically, for each transferase, glycosylation reactions were performed at the same time with all three (glyco)peptide substrates (including a no peptide control) using the same batch of transferase and the same UDP-[^3H]-GalNAc stock. Before performing time course experiments, the relative activity of each transferase was determined by trial and error against all three peptides to determine the optimal transferase concentration or incubation time that gave no more than 10% peptide glycosylation against the best substrate. Final time course experiments typically consisted of incubation times of 10, 20, and 30, or 30, 60, and 90 or 120 min (depending on activity) and were performed at least twice. Most transferases were also characterized at two different enzyme concentrations (0.01–0.03 and 0.2–0.5 µM) and the results combined. After quenching the reaction and diluting to 4 ml, free UDP and non-hydrolyzed UDP-GalNAc were removed by passage over a Dowex 1 × 8 anion exchange resin (~3 ml column). Total UDP-[^3H]-GalNAc utilization (transfer to peptide substrate and transfer to water, i.e, hydrolysis) was determined by difference after scintillation counting (Beckman LS5801 scintillation counter) 1/20 of the sample before and after passage over Dowex 1 × 8. The extent of [^3H]-GalNAc transfer to peptide and the extent of hydrolysis was determined by Sephadex G10 gel filtration analysis, typically for the longest reaction time point, as previously described. Example gel filtration chromatograms are given in Supplementary Fig. 12. Significant hydrolysis was only observed for GalNAc-T4, which was corrected for in determining its specific activity. Specific activity was obtained by calculating at each individual data time point (of the combined time course plots, Fig. 4b), an individual-specific activity, which was then averaged to obtain the overall average specific activity (and standard deviation). Specific activity is reported as nmol of glycopeptide product formed per min, per pmol of enzyme. Substrate activity ratios (i.e., substrate ratios 2/1, 3/1, and 3/2) were also obtained at each individual time point and averaged (with standard deviation). […] Note that the Microsoft Excel least squares fitting function LINEST was used to obtain the linear plots shown in Fig. 4b while fixing the y intercept to zero. Note that the specific activity calculated from the least square slope differed slightly (less than 10%) from that determined from the average of the individual time points.
(§2) Detailed enzyme kinetics on GalNAc-T4, GalNAc-T2, the GalNAc-T2 triple mutant and GalNAc-T2 chimera 3: Glycosylation reactions were performed as described above using a fixed enzyme concentration (0.06 µM for GalNAc-T4, and 0.02 µM for GalNAc-T2 and its linker constructs) with varying peptide concentrations (typically 45, 90, 180, 350, 700, 1400, and 2000 μM). Incubation times (10–90 min) were chosen such that no more than 30% of the UDP-GalNAc donor was depleted while typically giving less than 10% peptide glycosylation, after correction for UDP-GalNAc hydrolysis described above. Specific activities were obtained from one to two individual incubation time points performed in two–three separate experiments. […]

Test [2] has as its target T2, GalNAc-T2-t4Flexible linker (Chimera 3) (Homo sapiens, UniProt Q10471, A446W/D441E/D444P/E436N/F447H/H442D/I445G/Q443R/R438H).
T2 construct: made in house; host or cells: Pichia pastoris SMD1168 (pPICZαA)
As to the kind of experiment: Transferase assay / Michaelis-Menten kinetics of GalNAc-T2 chimera 3. As to conditions: for Vmax / Km: Chimera 3 (0.02 µM), pH 6.5 cacodylate, 37 °C, 0.25 mM UDP-[3H]-GalNAc, Michaelis-Menten fit, ± standard deviation; for Vmax: 10 mM MnCl2; for Catalytic efficiency (Vmax/Km): Chimera 3, errors estimated from the largest percent error of Vmax or Km. On the procedure: as §1, §2

Another test deals with T3, GalNAc-T4 (Homo sapiens, UniProt Q8N4A0).
T3 construct: amino acid residues 36–578 of the human GalNAc-T4; histidine tag (C); made in house; host or cells: Pichia pastoris SMD1168 (pPICZαA, secreted)
T3 sequence (Q8N4A0 36-578): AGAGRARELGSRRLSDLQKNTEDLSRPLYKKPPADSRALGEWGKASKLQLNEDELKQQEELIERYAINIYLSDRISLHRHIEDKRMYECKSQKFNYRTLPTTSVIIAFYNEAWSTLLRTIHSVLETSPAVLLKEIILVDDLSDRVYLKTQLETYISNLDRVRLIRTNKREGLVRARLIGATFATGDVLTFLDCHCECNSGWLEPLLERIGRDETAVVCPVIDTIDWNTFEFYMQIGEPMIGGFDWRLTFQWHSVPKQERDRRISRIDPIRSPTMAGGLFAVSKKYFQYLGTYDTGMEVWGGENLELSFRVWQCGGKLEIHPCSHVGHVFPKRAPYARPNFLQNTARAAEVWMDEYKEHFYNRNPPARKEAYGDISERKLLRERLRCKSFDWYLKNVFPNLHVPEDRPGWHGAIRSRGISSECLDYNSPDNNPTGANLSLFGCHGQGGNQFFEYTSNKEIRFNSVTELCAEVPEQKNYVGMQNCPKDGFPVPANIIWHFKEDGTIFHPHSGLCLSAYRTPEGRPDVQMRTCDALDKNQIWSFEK
Description: Transferase assay / Michaelis-Menten kinetics of GalNAc-T4. Conditions: for Activity of GalNAc-T4 on peptide / glycosylation: over a range of peptide concentrations, in words; for Activity of GalNAc-T4 on peptide / glycosylation / Catalytic efficiency (Vmax/Km): GalNAc-T4. The method, then: as §1, §2

A further test concerns the target T4, GalNAc-T2 (Homo sapiens, UniProt Q10471).
T4 construct: the previous reported template pPICZαAgalnact2 (K75-Q571); made in house; host or cells: Pichia pastoris (pPICZαA)
Description: Transferase assay / Michaelis-Menten kinetics of GalNAc-T2. As to conditions: for Vmax / Km: GalNAc-T2 (0.02 µM), pH 6.5 cacodylate, 37 °C, 0.25 mM UDP-[3H]-GalNAc, Michaelis-Menten fit (1/y weighting), ± standard deviation; for Vmax: 10 mM MnCl2, scintillation counting; for Catalytic efficiency (Vmax/Km): errors estimated from the largest percent error of Vmax or Km. On the procedure:
as §1, §2

“Also recorded” adds a separate entry of the source.

T2 sequence (Q10471 75-571 E436N/R438H/D441E/H442D/Q443R/D444P/I445G/A446W/F447H): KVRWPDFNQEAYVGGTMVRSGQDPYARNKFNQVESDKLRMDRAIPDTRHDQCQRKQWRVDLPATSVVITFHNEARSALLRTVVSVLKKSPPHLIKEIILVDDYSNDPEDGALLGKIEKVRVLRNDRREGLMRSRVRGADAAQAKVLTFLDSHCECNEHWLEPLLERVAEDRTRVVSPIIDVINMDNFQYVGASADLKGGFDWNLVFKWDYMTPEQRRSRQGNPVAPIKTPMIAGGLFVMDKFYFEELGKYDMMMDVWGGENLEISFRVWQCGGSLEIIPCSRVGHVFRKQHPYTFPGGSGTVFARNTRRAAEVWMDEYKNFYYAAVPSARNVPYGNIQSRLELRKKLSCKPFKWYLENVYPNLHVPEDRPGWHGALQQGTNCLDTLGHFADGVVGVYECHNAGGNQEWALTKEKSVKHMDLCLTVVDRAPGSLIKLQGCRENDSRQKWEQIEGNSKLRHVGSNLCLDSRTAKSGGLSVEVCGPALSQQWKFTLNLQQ
T1 sequence (Q10471 75-571 R438A/D444A/F447A): as the sequence (Q10471 75-571 E436N/R438H/D441E/H442D/Q443R/D444P/I445G/A446W/F447H) above, with N362E, H364A, E367D, D368H, R369Q, P370A, G371I, W372A, H373A counted along it
T4 sequence (Q10471 75-571): as the sequence (Q10471 75-571 E436N/R438H/D441E/H442D/Q443R/D444P/I445G/A446W/F447H) above, with N362E, H364R, E367D, D368H, R369Q, P370D, G371I, W372A, H373F counted along it

The term Km denotes the substrate concentration at which the rate is half of its maximum. On to “AGAGTTPGPGAGAT*GA [Peptide 2, monoglycopeptide …*GA, T* denotes the Thr-O-GalNAc moiety]”, for which the results for the Vmax (in test [1]; in test [2]; on GalNAc-T2) were 1.80 ± 0.06 mM/(nmole*min), 1.35 ± 0.11 mM/(nmole*min) and 3.12 ± 0.07 mM/(nmole*min), respectively. Moreover, the Km came out at 400 ± 40 µM in test [1], 700 ± 140 µM in test [2] and 180 ± 10 µM at GalNAc-T2. Besides, the “Catalytic efficiency (Vmax/Km)” value is 4.54 ± 0.9 nmol/min in test [1], 1.93 ± 0.8 nmol/min in test [2] and 17.0 ± 2.3 nmol/min at GalNAc-T2 (GalNAc-T2). The “change in kinetic parameters against monoglycopeptide 2” value in test [1] (triple mutant, in words) was “decrease in Vmax and increase in Km”. Further, the “change in kinetic parameters (Vmax, Km)” value in test [2] (chimera 3, in words) was “changes in Vmax and Km”. Also, at GalNAc-T4, the “Activity of GalNAc-T4 on peptide / glycosylation” value is listed as “imperceptibly glycosylated; also recorded: too low to determine their kinetic constants; also recorded: largely unglycosylated”. For the same substance, the “increase in catalytic efficiency for monoglycopeptide 2 over monoglycopeptide 3” value at GalNAc-T2 (GalNAc-T2, ratio 2 over 3) is given as “over threefold”. For the same substance, the “Km of monoglycopeptide 2 compared to monoglycopeptide 3” value at GalNAc-T2 (GalNAc-T2, ratio, in words) is reported as “~ fourfold lower”. For the same substance, the “substrate preference of GalNAc-T2, higher substrate concentrations” value on GalNAc-T2 (in words) is on record as “nearly equal preferences”. Also, the “substrate preference of GalNAc-T2, low substrate concentrations” value on GalNAc-T2 (low substrate concentrations, in words) was “high preference for monoglycopeptide 2 at low substrate concentrations”.

For the substance “GAT*GAGAGAGTTPGPG [Peptide 3, monoglycopeptide GAT*…, T* denotes the Thr-O-GalNAc moiety]”, the Vmax is listed as 2.82 ± 0.10 mM/(nmole*min) in test [1]; 3.69 ± 0.29 mM/(nmole*min) in test [2]; 3.09± 0.25 mM/(nmole*min) at GalNAc-T4 (Supplementary Table 2, GalNAc-T4 (0.06 µM), pH 6.5 cacodylate, 37 °C, 0.25 mM UDP-[3H]-GalNAc, 10 mM MnCl2, corrected for UDP-GalNAc hydrolysis, ± standard deviation); 3.79 ± 0.34 mM/(nmole*min) on GalNAc-T2. In addition, the Michaelis constant (Km) in test [1] is 570 ± 50 µM; in test [2], 990 ± 160 µM; on GalNAc-T4 (Fig. 2a and text, GalNAc-T4 (0.06 µM), Michaelis-Menten fit), around 40 µM; on GalNAc-T4 (Supplementary Table 2, GalNAc-T4 (0.06 µM), pH 6.5 cacodylate, 37 °C, 0.25 mM UDP-[3H]-GalNAc, ± standard deviation), 41 ± 18 µM; at GalNAc-T2, 750 ± 130 µM. Further, the “Catalytic efficiency (Vmax/Km)” value was 4.94 ± 0.9 nmol/min in test [1]; 3.73 ± 1.2 nmol/min in test [2]; ~ 75 (nmole min)^−1 at GalNAc-T4 (Fig. 2a and text); 75.2 ± 34 nmol/min on GalNAc-T4 (Supplementary Table 2, errors estimated from the largest percent error of Vmax or Km); 5.03 ± 1.8 nmol/min on GalNAc-T2 (GalNAc-T2). For the same substance, the “Activity of GalNAc-T4 on peptide / glycosylation” value on GalNAc-T4 was “glycosylated selectively”. Moreover, the “substrate preference of GalNAc-T2, higher substrate concentrations” value on GalNAc-T2 (in words) is listed as “nearly equal preferences”.

The values above are taken from article PMC5716993, “The interdomain flexible linker of the polypeptide GalNAc transferases dictates their long-range glycosylation preferences” (Nature Communications, 2017).
